From patent US9428476B2, “S-imino-S-oxo-iminothiadiazine compounds as BACE inhibitors, compositions, and their use” (Merck Sharp & Dohme Corp., priority 2013, dated 2016)

Legend:
[1] = molecular target: soluble human BACE1 catalytic domain (Homo sapiens (Human), UniProt P56817); experiment: BACE1 HTRF FRET Assay; type: biochemical; conditions: Ki calculated from IC50 using the Cheng-Prusoff equation; QSY7-APPswe-Eu substrate, pH 5.0
Excerpt: Na^+-Acetate pH 5.0; 1% Brij-35; Glycerol; Dimethyl Sulfoxide (DMSO); Recombinant human soluble BACE1 catalytic domain (>95% pure); APP Swedish mutant peptide substrate (QSY7-APP^swe-Eu): QSY7-EISEVNLDAEFC-Europium-amide.
A homogeneous time-resolved FRET assay can be used to determine IC50 values for inhibitors of the soluble human BACE1 catalytic domain. This assay monitors the increase of 620 nm fluorescence that resulted from BACE1 cleavage of an APPswedish APP^swe mutant peptide FRET substrate (QSY7-EISEVNLDAEFC-Europium-amide). This substrate contains an N-terminal QSY7 moiety that serves as a quencher of the C-terminal Europium fluorophore (620 nm Em). In the absence of enzyme activity, 620 nm fluorescence is low in the assay and increased linearly over 3 hours in the presence of uninhibited BACE1 enzyme Inhibition of BACE1 cleavage of the QSY7-APP^swe-Eu substrate by inhibitors is manifested as a suppression of 620 nm fluorescence.
Varying concentrations of inhibitors at 3× the final desired concentration in a volume of 10 ul are preincubated with purified human BACE1 catalytic domain (3 nM in 10 μl) for 30 minutes at 30° C. in reaction buffer containing 20 mM Na-Acetate pH 5.0, 10% glycerol, 0.1% Brij-35 and 7.5% DSMO. […]

[2] = molecular target: purified human autoBACE-2 (Homo sapiens (Human), UniProt Q9Y5Z0); experiment: BACE-2 Assay (BACE-HTRF assay); type: biochemical; conditions: Ki calculated from IC50 using the Cheng-Prusoff equation; QSY7-EISEVNLDAEFC-Eu-amide substrate, pH 5.0; read-out: BACE2 Ki
Protocol: Inhibitor IC50s at purified human autoBACE-2 are determined in a time-resolved endpoint proteolysis assay that measures hydrolysis of the QSY7-EISEVNLDAEFC-Eu-amide FRET peptide substrate (BACE-HTRF assay). BACE-mediated hydrolysis of this peptide results in an increase in relative fluorescence (RFU) at 620 nm after excitation with 320 nm light Inhibitor compounds, prepared at 3× the desired final concentration in 1×BACE assay buffer (20 mM sodium acetate pH 5.0, 10% glycerol, 0.1% Brij-35) supplemented with 7.5% DMSO are pre-incubated with an equal volume of autoBACE-2 enzyme diluted in 1×BACE assay buffer (final enzyme concentration 1 nM) in black 384-well NUNC plates for 30 minutes at 30° C. […] Following laser excitation of sample wells at 320 nm, the fluorescence signal at 620 nm is collected for 400 ms following a 50 μs delay on a RUBYstar HTRF plate reader (BMG Labtechnologies). […] IC50, are determined by nonlinear regression analysis (sigmoidal dose response, variable slope) of percent inhibition data with minimum and maximum values set to 0 and 100 percent respectively. […] The Ki values are calculated from the IC50 using the Cheng-Prusoff equation.

soluble human BACE1 catalytic domain, sequence (P56817 75-416): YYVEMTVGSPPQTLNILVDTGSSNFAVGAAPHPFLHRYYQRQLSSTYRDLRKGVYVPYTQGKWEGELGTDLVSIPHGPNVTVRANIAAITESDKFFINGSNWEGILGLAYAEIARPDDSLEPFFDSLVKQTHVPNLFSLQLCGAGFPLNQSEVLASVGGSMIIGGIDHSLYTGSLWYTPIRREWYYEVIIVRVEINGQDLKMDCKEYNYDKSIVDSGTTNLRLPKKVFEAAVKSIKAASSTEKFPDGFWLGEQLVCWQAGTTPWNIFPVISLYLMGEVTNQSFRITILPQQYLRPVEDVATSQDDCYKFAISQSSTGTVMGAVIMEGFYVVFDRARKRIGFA
purified human autoBACE-2, sequence (Q9Y5Z0 63-473 limits assumed): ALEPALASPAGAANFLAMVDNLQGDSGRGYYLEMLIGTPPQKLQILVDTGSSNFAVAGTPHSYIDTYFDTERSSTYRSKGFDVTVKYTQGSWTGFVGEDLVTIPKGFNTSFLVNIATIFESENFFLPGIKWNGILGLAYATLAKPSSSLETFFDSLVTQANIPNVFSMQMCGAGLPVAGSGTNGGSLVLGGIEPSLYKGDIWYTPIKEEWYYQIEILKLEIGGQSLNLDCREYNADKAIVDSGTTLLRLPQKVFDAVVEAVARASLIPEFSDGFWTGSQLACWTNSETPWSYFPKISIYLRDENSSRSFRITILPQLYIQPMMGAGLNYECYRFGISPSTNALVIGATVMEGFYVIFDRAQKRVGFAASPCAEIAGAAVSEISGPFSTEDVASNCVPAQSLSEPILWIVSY

SMILES: CCN=S1(=O)C[C@@](C)(c2cc(NC(=O)c3ccc(Cl)cn3)ccc2F)NC(=N)N1C (stereo partly shown) [Example 5]
- Ki [1]: 8 nM
- Ki [2]: 3 nM

SMILES: CCN1C(=N)N[C@](C)(c2cc(NC(=O)c3ccc(Cl)cn3)ccc2F)CS1(=O)=NC (stereo partly shown) [Example 6]
- Ki [1]: 10 nM
- Ki [2]: 3 nM
